Consider one compound from patent US20090018146A1, “Combination Therapy with Triterpenoid Compounds and Proteasome Inhibitors” (Research Development Corporation, priority 2005, published 2009).

For series [1], the target named is T1, 20S proteasomal activity (Homo sapiens, UniProt Q99436).
T1 construct: Proteasomal extracts (PE) were prepared; endogenous in cells; host or cells: Jurkat T cells (proteasomal extracts)
T1 sequence (Q99436 44-277): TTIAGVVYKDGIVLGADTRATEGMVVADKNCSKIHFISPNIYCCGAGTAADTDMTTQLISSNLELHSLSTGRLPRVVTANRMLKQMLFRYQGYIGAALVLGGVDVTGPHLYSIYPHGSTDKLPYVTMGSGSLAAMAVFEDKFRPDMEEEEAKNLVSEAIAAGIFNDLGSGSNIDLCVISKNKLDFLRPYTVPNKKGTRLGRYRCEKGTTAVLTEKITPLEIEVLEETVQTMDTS
As to the kind of experiment: 20S proteasomal assay in Jurkat cells. As to conditions: for decrease in the 20S proteasomal activity: avicin D 1 μM. In kind it is cell-based. On the procedure: Jurkat T cells were treated with 1 μM of avicin D for 0-4 hours. Proteasomal extracts (PE) were prepared as described previously (18) in a buffer containing 50 mM Hepes pH 8, 5 mM EGTA, 0.3% NP40, and 10% glycerol. The assay reaction contained 20 mM Tris-Cl pH7.2, 0.1 mM EDTA, 1 mM β-mercaptoethanol, 5 mM ATP, 20% glycerol, 0.02% SDS, and 0.04% NP40. About 10 μg of the PE proteins and BocLRR-AMC (0.1 mM), which allows measurement of the trypsin-like activity of proteasomes, was used as substrate. The reaction was carried out at 30° C. for 30 minutes and the fluorescence was read at 380 nm (excitation) and 460 nm (emission) in a Perkin Elmer HTS 7000 Plus, Bioassay Reader.
Statistical significance of differences observed in the proteasomal activity in avicin treated cells compared with the untreated cells was determined by using an unpaired Student t test. The minimum level of significance was a P<0.05.

For series [2], the system named is XIAP. Description: Western blot of XIAP in leukemic/lymphoma cell-lines. In kind it is cell-based, human. As to conditions: Jurkat, U937, MJ-1, and HH cells, 24 hours post-treatment. On the procedure: Human Jurkat T cell leukemia, monocytic U937 cells, and cutaneous T-cell lymphoma (CTCL) cell lines MJ (G11) and HH were obtained from American Type Culture Collection (Rockville, Md.) and grown in RPMI 1640 medium supplemented with 10% FBS and 2 mM glutamine.
(§1) Jurkat T cells (2 μg/ml=1 μM), U-937 (4 μg/ml), MJ (5 μg/ml), and HH cells (2.5 μg/ml) were treated for 0-24 hours with the indicated concentrations of avicin D. PBLs from the patients or normal blood were treated with 5 μg/ml of avicin D for 24 hours.
At the end of treatments, cells were harvested, washed with sterile ice-cold PBS and cytoplasmic extracts (CE) were prepared by lysing the cells in CE buffer containing 10 mM Hepes-Cl pH 7.5, 10 mM KCl, 0.1 mM EDTA, 0.1 mM EGTA, 0.3% NP40, and a protease inhibitor cocktail (Sigma). After centrifugation and separating the supernatant (CE proteins), the pellet was resuspended in a buffer containing 20 mM Hepes-Cl, 400 mM NaCl, 1 mM EDTA, 1 mM EGTA, and protease inhibitor cocktail (Sigma). […]
(§2) SDS-PAGE and immunoblot procedures were essentially performed as described (Sambrook, 1989). […] Protein bands were detected using the ECL chemiluminescence kit from Amersham as per the manufacturer's protocol.
(§3) Quantitation of proteins (western) and transcripts (RT-PCR) was performed using the NIH 1.61 image software.
On the technique in general: Immunoblotting shows a protein as a band on a membrane.

For series [3], the system named is Hsp90β transcript. Description: One-step RT-PCR of Hsp90β transcript in Jurkat cells. Format: cell-based, human. Particulars: as early as 30 minutes. On the procedure:
(§4) Total RNA purified using Trizol method (Invitrogen) was subjected to DNAseI (RNAase free, Sigma Chemical Co.) treatment to remove any residual DNA, followed by heat inactivation and addition of 1 mM EDTA. Absence of genomic DNA was confirmed by performing PCR using Taq DNA polymerase. About 50-100 ng of purified total RNA was used in a one-step RT-PCR reaction kit from Invitrogen in a Techne Genius machine. The samples were separated on 0.8% agarose-TBE gels and viewed by staining with ethidium bromide.
as §3

Series [4] has as its system Hsp70α transcript. As to the kind of experiment: One-step RT-PCR of Hsp70α transcript in Jurkat cells. Format: cell-based, human. As to conditions: as early as 30 minutes. The method, then:
as §4, §3

Series [5] has as its system Hsp70. Description: Western blot of Hsp70 protein in avicin D treated Jurkat cells. Format: cell-based, human. Particulars: avicin D 1 μM, within one hour up to 4 hours, western blot vs untreated. On the procedure: as §1
(§5) At the end of treatments, cells were harvested, washed with sterile ice-cold PBS and cytoplasmic extracts (CE) were prepared by lysing the cells in CE buffer containing 10 mM Hepes-Cl pH 7.5, 10 mM KCl, 0.1 mM EDTA, 0.1 mM EGTA, 0.3% NP40, and a protease inhibitor cocktail (Sigma). After centrifugation and separating the supernatant (CE proteins), the pellet was resuspended in a buffer containing 20 mM Hepes-Cl, 400 mM NaCl, 1 mM EDTA, 1 mM EGTA, and protease inhibitor cocktail (Sigma). The nuclear protein extraction proceeded for 30 min. on ice followed by centrifugation at 14,000 rpm for 5 min at 4° C. The clear supernatant containing nuclear proteins (NE) was collected, glycerol (10%) was added, and proteins stored at −80° C. until use.
(§6) SDS-PAGE and immunoblot procedures were essentially performed as described (Sambrook, 1989). Briefly, cytoplasmic and nuclear proteins were resolved on SDS-PAGE, blotted on PVDF membranes (BioRad) and probed with various antibodies followed with anti-rabbit, anti-mouse antibody conjugated to horseradish peroxidase (HRP) from BioRad or HRP conjugated anti-goat antibody from Santa Cruz Biotechnology, corresponding to the primary antibody. Protein bands were detected using the ECL chemiluminescence kit from Amersham as per the manufacturer's protocol.
as §3

Series [6] deals with Hsc70, Hsp60, grp75, calnexin. As to the kind of experiment: Western blot of other chaperone proteins in avicin D treated Jurkat cells. Particulars: avicin D 1 μM, up to 4 hours. Format: cell-based, human. The method, then: as §1, §5, §2, §3
In series [7] the test system is Hsp70. Description: Western blot of Hsp70 in normal PBL. Format: cell-based, human. As to conditions: PBL from a normal blood sample, 5 μg/ml, 24 hours. The method, then: as §1, §5, §2
Series [8] deals with XIAP. Description: Western blot of XIAP protein in Jurkat cells. Format: cell-based, human. The method, then: as §1, §5, §6, §3
The test system of series [9] is PBL from a normal blood sample. Description: Apoptosis in normal PBL. In kind it is cell-based, human. On the procedure:
as §1

Series [10] deals with caspase 9. As to the kind of experiment: Western blot of caspase 9 cleavage in Jurkat cells. In kind it is cell-based, human. As to conditions: 2 hours of treatment. The method, then: as §1, §5, §2
The test system of series [11] is XIAP. Description: Western blot of XIAP in normal PBL. Format: cell-based, human. As to conditions: PBL from a normal blood sample, 5 μg/ml, 24 hours. The method, then:
as §1, §5, §2

Consider `C=C[C@](C)(O)CC/C=C(\CO)C(=O)O[C@H]1[C@H](O)[C@@H](O)[C@H](O[C@@](C)(C=C)CC/C=C(\CO)C(=O)O[C@H]2C[C@]3(C(=O)O[C@@H]4O[C@H](CO)[C@@H](O)[C@H](O)[C@H]4O[C@@H]4O[C@@H](C)[C@H](O[C@@H]5O[C@@H](CO)[C@H](O)[C@H]5O)[C@@H](O[C@@H]5O[C@H](CO)[C@@H](O)[C@H](O)[C@H]5O)[C@H]4O)[C@H](O)C[C@]4(C)C(=CC[C@@H]5[C@@]6(C)CC[C@H](O[C@@H]7O[C@H](CO[C@@H]8O[C@H](C)[C@H](O)[C@H](O)[C@H]8O[C@@H]8OC[C@@H](O)[C@H](O)[C@H]8O)[C@@H](O)[C@H](O)[C@H]7NC(C)=O)C(C)(C)[C@@H]6CC[C@]54C)[C@@H]3CC2(C)C)O[C@@H]1C` [avicin D], for which the “decrease in the 20S proteasomal activity” value turned out to be 33% in series [1] (2 hours) and 41% in series [1] (4 hours). For the same compound, the “decrease in proteasome activity” value in [1] (during 2-4 hours of treatment) is reported as 30-40%. Besides, the XIAP protein level entry in series [2] and in [8] (starting at 1 hour post treatment) was “significant decrease” in each case. Besides, the “increase in the Hsp90β transcript (RT-PCR)” value in [3] is given as ~1.4 fold. Further, in series [4], the “increase in the Hsp70α transcript (RT-PCR)” value is ~1.6 fold. Moreover, the “protein levels of Hsp70” value in series [5] is on record as “significant decrease”. Besides, in series [6], the “expression of other chaperone proteins (Hsc70, Hsp60, grp75, calnexin)” value is listed as “did not show any change”. In addition, the “change in Hsp70 protein” value in series [7] is on record as “no significant change”. The XIAP degraded in [8] (by 1 hour) was ~60%. Besides, the apoptosis entry in [9] is recorded as “resistant to apoptosis”. Further, the “cleavage of caspase 9” value in [10] is “increased cleavage”. Besides, the “change in XIAP protein” value in series [11] is given as “no significant change”.
